Here are results for 5 compounds from patent publication US20070270336A1, “Method for accelerating cutaneous barrier recovery” (Shiseido Company, Ltd., priority 2006, published 2007).

For experiment [1], the system named is hairless mice flank skin. The experiment in a line: Permeability barrier recovery (TEWL) after tape stripping. In kind it is in vivo, mouse. The note with it: for permeability barrier recovery after tape stripping (percent recovery of TEWL): single topical application after tape stripping, each reagent 1 mM (FIG. 1 legend), 1, 3 and 6 hours, vs water control. The protocol: All experiments were performed on 7-10-week old male hairless mice (HR-1, Hoshino, Japan). All procedures for measuring of skin barrier function, disrupting the barrier and applying the sample were carried out under anesthesia. All experiments were approved by the Animal Research Committee of the Shiseido Research Center in accordance with the National Research Council Guide. 1-EBIO, diazoxide, gilbenclamide, minoxidil, dequalinium were purchased from Tocris (TOCRIS, Bristol, UK). Valinomycin was purchased from Wako (Wako Osaka, Japan).
(§1) Permeability barrier function was evaluated by measurement of transepidermal water loss (TEWL) with an electric water analyzer, as described previously (Denda, M., Sato J., Masuda Y., Kuramoto M., Elias P. M., Feingold K. R. (1998). J Invest Dermatol 111(5): 858-63). For barrier recovery experiments, both sides of flank skin were treated with repeated tape stripping until the TEWL reached 7-10 mg per cm^2 per h. […] The areas were covered with plastic membranes for 15 min (both treated and control sites) and then the membranes were removed. Previous studies have shown that occlusion for a longer period of time delays barrier repair. […] Two points on one side of a flank were measured and 4-8 mice were used to evaluate the effects of each treatment. We always disrupted the barrier between 7:00AM to 8:00AM to avoid variations in repair rate due to the influence of circadian rhythm. TEWL was then measured over the same sites at 1, 3 and 6 hours after barrier disruption. The barrier recovery results are expressed as percent of recovery, because of variations from day to day in the extent of barrier disruption. In each animal, the percentage of recovery was calculated by the following formula: (TEWL immediately after barrier disruption−TEWL at indicated time point)/(TEWL immediately after barrier disruption−baseline TEWL)×100%). All experiments were performed on 7 to 10-week-old male hairless mice (HR-1, Hoshino, Japan). All procedures including measurement of skin barrier function, disruption of the barrier, and application of test samples were carried out under anesthesia.

For experiment [2], the system named is mouse epidermis (stratum granulosum lamellar bodies). As to the kind of experiment: Electron-microscopic study of lamellar body secretion after acetone treatment. In kind it is in vivo. The note with it: one hour after acetone treatment; electron microscopy; FIG. 4. An excerpt: The full thickness of skin samples for electron microscopy was minced into pieces (<0.5 mm^3) and fixed in modified Karnovsky's fixative overnight. They were then post-fixed in 2% aqueous osmium tetroxide or 0.2% ruthenium tetroxide as described previously (Denda et al. 1998, op. cit.). After fixation, all samples were dehydrated in graded ethanol solutions, and embedded in an Epon-epoxy mixture. Thin sections were stained with lead citrate and uranyl acetate and viewed by electron microscopy.

Experiment [3] concerns hairless mice epidermis. As to the kind of experiment: Epidermal hyperplasia induced by barrier disruption under low humidity. In kind it is in vivo, mouse. The protocol: Animals were kept separately in 7.2 liter cages in which the relative humidity was maintained at less than 10% with dry air as described previously (Denda et al. 1998a). The temperature was the same in all cases (22-25° C.), and fresh air was circulated 100 times per hour. Animals were kept out of the direct stream of air. During the experiments, the animal's behavior was not restricted. The level of NH3 was always below 1 ppm. Animals were first kept in a dry condition for 48 hours and then the skin on both flank sides was treated with acetone-soaked cotton balls, as described previously (Denda et al. 1998a). The procedure was terminated when TEWL reached 2.5-3.5 mg per cm^2 per h. Immediately after the barrier disruption, 100 ul of Diazoxide aqueous solution (100 uM) was applied on one side of the treated area. Water was applied on the other side. Then the animals were again kept in the dry condition for 48 hours. After the experiments, animals were euthanized with diethylether inhalation and skin samples were taken from the treated area. […] On each section, five areas were selected at random; the thickness of the epidermis was measured with an optical micrometer, and the mean value was calculated. […] On each section, five areas were selected at random from one section; the number of immunostained cells per 1 mm of epidermis was counted and the mean value was calculated. […]

The test system of experiment [4] is differentiated cultured human keratinocytes (CHK). As to the kind of experiment: Evaluation of intracellular potassium levels (PBFI-AM fluorescence). The note with it: FIG. 3. In kind it is cell-based. The protocol:
Evaluation of intracellular potassium levels All in vitro cell culture measurements were carried out using second passage human neonatal keratinocytes. We incubated cells in a low calcium medium (0.1 mM calcium, HuMedia-KG2, KURABO, Osaka, Japan) for at least 5 days and used the cells within 10 days. These keratinocytes were incubated until 100% of confluency, incubated 3 more days, and then incubated in a high calcium medium (1.8 mM calcium) for 24 hours to induce differentiation of the keratinocytes. We then added PBF1-AM (Molecular Probes, Eugene, Oreg.), final concentration 10 μM, and then incubated the cells for 4 hours at 37 C. The cultured keratinocytes were then washed in the medium described above. The cover slip was mounted on a fluorescence microscope (IX70, TS Olympus, Tokyo, Japan) equipped with a 75 W xenon-lamp and band-path filters of 340 nm. Measurements were carried out at the room temperature. Imaging data, recorded by a high-sensitive silicon intensifier target camera (C4742, Hamamatsu Photonics, Hamamatsu, Japan) were recorded by a fluorescence analyzing system (AQUACOSMOS/RATIO1, Hamamatsu Photonics, Hamamatsu, Japan).

The subject of experiment [5] is hairless mouse flanks. As to the kind of experiment: Permeability barrier recovery (TEWL) after acetone treatment. In kind it is in vivo. The note with it: topical potassium ionophore; FIG. 2B; n=4. How it is done: as §1, with “[…] Immediately after” for “For”, “disruption 100 μl” for “recovery experiments, both sides”, “an aqueous solution containing 1 μM of reagent or water alone (control) was applied to the” for “flank skin were”, “area.” for “with repeated tape stripping until the TEWL reached 7-10 mg per cm^2 per h.”, “All experiments were performed on 7 to 10-week-old male hairless mice (HR-1, Hoshino, Japan). All procedures including measurement of skin barrier function, disruption of the barrier, and application of test samples were carried out under anesthesia.” left out

Entries after “also recorded” stand apart in the source; their conditions may differ.

For the compound `COc1ccc(Cl)cc1C(=O)NCCc1ccc(S(=O)(=O)NC(=O)NC2CCCCC2)cc1` [gilbenclamide, 5-chloro-N{2-[4[[[cycohexylamino]carbonyl]amino]sulfonyl]phenyl}-2-metyhoxybenzamide], in experiment [1], the “permeability barrier recovery after tape stripping (percent recovery of TEWL)” value is “significantly delayed barrier recovery”.

For `Cc1cc(N)c2ccccc2[n+]1CCCCCCCCCC[n+]1c(C)cc(N)c2ccccc21` [dequalinium, 1,1-(1,10-Decanedyl)bis(4-amino-2-methylquinolinium)dichloride], in experiment [1], the “permeability barrier recovery after tape stripping (percent recovery of TEWL)” value was “significantly delayed barrier recovery”.

Turning to `CC1=Nc2ccc(Cl)cc2S(=O)(=O)N1` [diazoxide, 7-chloro-3-methyl-2H-1,2,4-benzothiadiazine 1,1-dioxide], in experiment [1], the “permeability barrier recovery after tape stripping (percent recovery of TEWL)” value is “significantly accelerated barrier repair; also recorded: accelerated barrier recovery”. Further, in experiment [2], the “lamellar body (LB) secretion at SG-SC interface” value is given as “much more secreted material is evident at SG-SC interface; also recorded: accelerated the secretion of LB”. Also, the “epidermal hyperplasia induced by acetone treatment under low humidity” value in experiment [3] (topical 100 uM aqueous solution, 48 hours dry condition, vs water, FIG. 5) was “prevented the epidermal hyperplasia”. Further, in experiment [3] (topical 100 uM, FIG. 6, 6 control mice and 5 treated, ANOVA probability 0.0372), the “epidermal proliferation (BrdU positive cells), quantified” value is reported as “Significant reductions of epidermal proliferation”. Moreover, in experiment [4] (10 μM final concentration), the “change in intracellular potassium (K+) concentration” value (shortened to “change in intracellular potassium”) is reported as “decreased intracellular K^+ concentrations; also recorded: decreased intracellular potassium concentrations”.

As to `CC(C)[C@@H]1NC(=O)[C@H](C)OC(=O)[C@@H](C(C)C)NC(=O)[C@@H](C(C)C)OC(=O)[C@H](C(C)C)NC(=O)[C@H](C)OC(=O)[C@@H](C(C)C)NC(=O)[C@@H](C(C)C)OC(=O)[C@H](C(C)C)NC(=O)[C@H](C)OC(=O)[C@@H](C(C)C)NC(=O)[C@@H](C(C)C)OC1=O` [valinomycin], the “permeability barrier recovery after tape stripping” value in experiment [1] (topical potassium ionophore, FIG. 2A, n=4) is listed as “accelerated barrier recovery”. The “lamellar body (LB) secretion at SG-SC interface” value in experiment [2] is recorded as “much more secreted material is evident at SG-SC interface; also recorded: accelerated the secretion of LB”. Moreover, the “permeability barrier recovery after acetone treatment” value in experiment [5] is “accelerated barrier recovery”. For the same compound, in experiment [4] (1 μM final concentration), the “change in intracellular potassium” value is recorded as “decreased intracellular K^+ concentrations; also recorded: decreased intracellular potassium concentrations”.

On to `CCn1c(=O)[nH]c2ccccc21` [1-EBIO, 1-Ethyl-2-benzoimidazollnone], for which the “permeability barrier recovery after tape stripping (percent recovery of TEWL)” value in experiment [1] is listed as “significantly accelerated barrier repair; also recorded: accelerated barrier recovery”. In experiment [4] (10 μM final concentration), the “change in intracellular potassium” value was “decreased intracellular K^+ concentrations; also recorded: decreased intracellular potassium concentrations”.
